Reference: patent publication US20140088069A1, “NOVEL ANTIBACTERIAL COMBINATION THERAPY” (priority 2011, published 2014)
Like-named read-outs stand apart in the source and are kept apart here. Values belong to the compound of their own block, whether it stands above or below them.

Legend:
CA-MRSA USA300 = assay: Checkerboard (FIC) analysis against CA-MRSA USA300; assay type: cell-based, Staphylococcus aureus; details: for MIC: Staphylococcus aureus
Method: (§1) Here a matrix of drug concentrations were tested in combinations at the concentrations shown (μg/mL). Greyscale indicates growth—darker is more growth, lighter is less growth. FIC index is a measure of synergy and is calculated as follows: FIC index=FIC (cefuroxime)+FIC (drug compound).
(§2) The combination of ticlopidine and cefuroxime was further tested as above against a variety of S. aureus strains as shown in Table 1 below.
FIC index=FIC (β-lactam)+FTC (ticlopidine). […]

[1] = test system: S. aureus (Newman strain); assay: Checkerboard (FIC) analysis against S. aureus Newman; assay type: cell-based, Staphylococcus aureus; details: for MIC: Staphylococcus aureus
HA-MRSA USA600 = assay: Checkerboard (FIC) analysis, HA-MRSA USA600; assay type: cell-based, Staphylococcus aureus; details: for MIC: Staphylococcus aureus
HA-MRSA USA100/800/NY = assay: Checkerboard (FIC) analysis, HA-MRSA USA100/800/NY; assay type: cell-based, Staphylococcus aureus; details: for MIC: Staphylococcus aureus
HA-MRSA [2] = assay: Checkerboard (FIC) analysis, HA-MRSA (Table 1 r10); assay type: cell-based, Staphylococcus aureus; details: for MIC: Staphylococcus aureus
HA-MRSA USA200/EMRSA16 = assay: Checkerboard (FIC) analysis, HA-MRSA USA200/EMRSA16; assay type: cell-based, Staphylococcus aureus; details: for MIC: Staphylococcus aureus
HA-MRSA USA500 = assay: Checkerboard (FIC) analysis, HA-MRSA USA500; assay type: cell-based, Staphylococcus aureus; details: for MIC: Staphylococcus aureus
HA-MRSA [3] = assay: Checkerboard (FIC) analysis, HA-MRSA (Table 1 r13); assay type: cell-based, Staphylococcus aureus; details: for MIC: Staphylococcus aureus
Method: (§3) Here a matrix of drug concentrations were tested in combinations at the concentrations shown (μg/mL). […] FIC index is a measure of synergy and is calculated as follows: FIC index=FIC (cefuroxime)+FIC (drug compound).

CA-MRSA USA400/MW2 = assay: Checkerboard (FIC) analysis, CA-MRSA USA400/MW2; assay type: cell-based, Staphylococcus aureus; details: for MIC: Staphylococcus aureus
HA-MRSA EMRSA15 = assay: Checkerboard (FIC) analysis, HA-MRSA EMRSA15; assay type: cell-based, Staphylococcus aureus; details: for MIC: Staphylococcus aureus
HA-MRSA [4] = assay: Checkerboard (FIC) analysis, HA-MRSA (Table 1 r16); assay type: cell-based, Staphylococcus aureus; details: for MIC: Staphylococcus aureus
RN4220 = assay: Checkerboard (FIC) analysis, RN4220; assay type: cell-based, Staphylococcus aureus
Method: as §3

SA178R1 = assay: Checkerboard (FIC) analysis, SA178R1; assay type: cell-based, Staphylococcus aureus; details: for MIC: Staphylococcus aureus
MRSA = assay: Analogues in combination with cefuroxime against MRSA (FIC index); assay type: cell-based, Staphylococcus aureus
Method: A series of analogues were synthesized (as shown in Table 5) in which the thienopyridine ring was removed.
These were tested in combination with cefuroxime against MRSA and results are shown below (Table 6).

S. aureus strains = test system: S. aureus strains
Method: as §1, §2

[5] = cefuroxime alone, read-out: MIC cefuroxime
[6] = thienopyridine alone, CA-MRSA USA300 (Table 4), read-out: MIC thienopyridine
[7] = in the presence of cefuroxime, CA-MRSA USA300 (Table 4)
[8] = ticlopidine alone, read-out: MIC ticlopidine
[9] = compound in combination with cefuroxime, MRSA (Table 5)
[10] = novel analogue in combination with cefuroxime, MRSA (Table 6)

SMILES: CO/N=C(\C(=O)N[C@@H]1C(=O)N2C(C(=O)O)=C(COC(N)=O)CS[C@H]12)c1ccco1 [Cefuroxime]
- FIC cefuroxime (CA-MRSA USA300; CA-MRSA USA300 (Table 1), in the presence of ticlopidine): 0.032
- MIC (CA-MRSA USA300; CA-MRSA USA300 (Table 1), cefuroxime alone, read-out: MIC cefuroxime): 512 µg/mL
- MIC (CA-MRSA USA300; cefuroxime alone, CA-MRSA USA300 (Table 4), read-out: MIC Cefuroxime): 256 µg/mL
- FIC index (CA-MRSA USA300; antibiotic in combination with ticlopidine, CA-MRSA USA 300, FIC (β-lactam)+FIC (ticlopidine)): ≦0.13
- FIC cefuroxime (CA-MRSA USA300; in the presence of clopidogrel, CA-MRSA USA300 (Table 4)): 0.063
- FIC cefuroxime (CA-MRSA USA300; in the presence of prasugrel, CA-MRSA USA300 (Table 4)): 0.25
- FIC cefuroxime (CA-MRSA USA300; in the presence of ticlopidine, CA-MRSA USA300 (Table 4)): 0.03
- FIC cefuroxime ([1]; Newman, in the presence of ticlopidine): 0.125
- MIC ([1]; Newman, cefuroxime alone, read-out: MIC cefuroxime): 2 µg/mL
- FIC index ([1]; antibiotic in combination with ticlopidine, S. aureus (Newman strain)): ≦0.25
- MIC (HA-MRSA USA600; [5]): ≥ 1020 µg/mL
- FIC cefuroxime (HA-MRSA USA600; in the presence of ticlopidine): 0.008
- MIC (HA-MRSA USA100/800/NY; [5]): 1020 µg/mL
- FIC cefuroxime (HA-MRSA USA100/800/NY; in the presence of ticlopidine): 0.125
- FIC cefuroxime (HA-MRSA [2]; HA-MRSA (Table 1 r10), in the presence of ticlopidine): 0.250
- MIC (HA-MRSA [2]; HA-MRSA (Table 1 r10, no further strain name), cefuroxime alone, read-out: MIC cefuroxime): > 2050 µg/mL
- MIC (HA-MRSA USA200/EMRSA16; [5]): 1020 µg/mL
- FIC cefuroxime (HA-MRSA USA200/EMRSA16; in the presence of ticlopidine): 0.032
- MIC (HA-MRSA USA500; [5]): 32 µg/mL
- FIC cefuroxime (HA-MRSA USA500; in the presence of ticlopidine): 1
- FIC cefuroxime (HA-MRSA [3]; HA-MRSA (Table 1 r13), in the presence of ticlopidine): 0.250
- MIC (HA-MRSA [3]; HA-MRSA (Table 1 r13, no further strain name), cefuroxime alone, read-out: MIC cefuroxime): > 2050 µg/mL
- MIC (CA-MRSA USA400/MW2; [5]): 256 µg/mL
- FIC cefuroxime (CA-MRSA USA400/MW2; in the presence of ticlopidine): 0.063
- MIC (HA-MRSA EMRSA15; [5]): 512 µg/mL
- FIC cefuroxime (HA-MRSA EMRSA15; in the presence of ticlopidine): 0.063
- FIC cefuroxime (HA-MRSA [4]; HA-MRSA (Table 1 r16), in the presence of ticlopidine): 0.125
- MIC (HA-MRSA [4]; HA-MRSA (Table 1 r16, no further strain name), cefuroxime alone, read-out: MIC cefuroxime): 2050 µg/mL
- FIC cefuroxime (RN4220; in the presence of ticlopidine): 1
- MIC (SA178R1; [5]): 0.5 µg/mL
- FIC cefuroxime (SA178R1; in the presence of ticlopidine): 1

SMILES: Clc1ccccc1CN1CCc2sccc2C1 [Compound 1, 5-(2-Chloro-benzyl)-4,5,6,7-tetrahydro-thieno[3,2-c]pyridine]
- FIC ticlopidine (CA-MRSA USA300; CA-MRSA USA300 (Table 1), in the presence of cefuroxime): 0.032
- FIC index (CA-MRSA USA300; CA-MRSA USA300 (Table 1), ticlopidine + cefuroxime): ≦0.063
- MIC (CA-MRSA USA300; CA-MRSA USA300 (Table 1), ticlopidine alone, read-out: MIC ticlopidine): > 256 µg/mL
- MIC (CA-MRSA USA300; [6]): > 128 µg/mL
- drug-drug interaction with cefuroxime (checkerboard secondary screen) (CA-MRSA USA300; in combination with cefuroxime): synergistic interactions
- FIC thienopyridine (CA-MRSA USA300; [7]): 0.13
- FIC index (CA-MRSA USA300; thienopyridine in combination with cefuroxime, CA-MRSA USA300 (Table 4)): ≦0.16
- FIC index (CA-MRSA USA300; ticlopidine in combination with cefuroxime, CA-MRSA USA 300, FIG. 2): ≤ 0.12
- FIC ticlopidine ([1]; Newman, in the presence of cefuroxime): 0.125
- FIC index ([1]; Newman, ticlopidine + cefuroxime): ≦0.250
- MIC ([1]; Newman, ticlopidine alone, read-out: MIC ticlopidine): > 256 µg/mL
- MIC (HA-MRSA USA600; [8]): > 256 µg/mL
- FIC ticlopidine (HA-MRSA USA600; in the presence of cefuroxime): 0.032
- FIC index (HA-MRSA USA600; ticlopidine + cefuroxime): ≦0.040
- MIC (HA-MRSA USA100/800/NY; [8]): > 256 µg/mL
- FIC ticlopidine (HA-MRSA USA100/800/NY; in the presence of cefuroxime): 0.125
- FIC index (HA-MRSA USA100/800/NY; ticlopidine + cefuroxime): ≦0.250
- FIC ticlopidine (HA-MRSA [2]; HA-MRSA (Table 1 r10), in the presence of cefuroxime): 0.032
- FIC index (HA-MRSA [2]; HA-MRSA (Table 1 r10), ticlopidine + cefuroxime): ≦0.282
- MIC (HA-MRSA [2]; HA-MRSA (Table 1 r10), ticlopidine alone, read-out: MIC ticlopidine): > 256 µg/mL
- MIC (HA-MRSA USA200/EMRSA16; [8]): > 256 µg/mL
- FIC ticlopidine (HA-MRSA USA200/EMRSA16; in the presence of cefuroxime): 0.063
- FIC index (HA-MRSA USA200/EMRSA16; ticlopidine + cefuroxime): ≦0.095
- MIC (HA-MRSA USA500; [8]): > 256 µg/mL
- FIC ticlopidine (HA-MRSA USA500; in the presence of cefuroxime): 1
- FIC index (HA-MRSA USA500; ticlopidine + cefuroxime): ≦2
- FIC ticlopidine (HA-MRSA [3]; HA-MRSA (Table 1 r13), in the presence of cefuroxime): 0.016
- FIC index (HA-MRSA [3]; HA-MRSA (Table 1 r13), ticlopidine + cefuroxime): ≦0.266
- MIC (HA-MRSA [3]; HA-MRSA (Table 1 r13), ticlopidine alone, read-out: MIC ticlopidine): > 256 µg/mL
- MIC (CA-MRSA USA400/MW2; [8]): > 256 µg/mL
- FIC ticlopidine (CA-MRSA USA400/MW2; in the presence of cefuroxime): 0.063
- FIC index (CA-MRSA USA400/MW2; ticlopidine + cefuroxime): ≦0.125
- MIC (HA-MRSA EMRSA15; [8]): > 256 µg/mL
- FIC ticlopidine (HA-MRSA EMRSA15; in the presence of cefuroxime): 0.063
- FIC index (HA-MRSA EMRSA15; ticlopidine + cefuroxime): ≦0.125
- FIC ticlopidine (HA-MRSA [4]; HA-MRSA (Table 1 r16), in the presence of cefuroxime): 0.063
- FIC index (HA-MRSA [4]; HA-MRSA (Table 1 r16), ticlopidine + cefuroxime): ≦0.188
- MIC (HA-MRSA [4]; HA-MRSA (Table 1 r16), ticlopidine alone, read-out: MIC ticlopidine): > 256 µg/mL
- MIC (RN4220; Staphylococcus aureus, ticlopidine alone): > 128 µg/mL
- FIC ticlopidine (RN4220; in the presence of cefuroxime): 1
- FIC index (RN4220; ticlopidine + cefuroxime): ≦2
- MIC (SA178R1; [8]): > 128 µg/mL
- FIC ticlopidine (SA178R1; in the presence of cefuroxime): 1
- FIC index (SA178R1; ticlopidine + cefuroxime): ≦2
- FIC index (MRSA; [9]): ≦0.125
- methicillin-resistant strains (Canadian MRSA collection) in which potent synergy was retained (S. aureus strains; ticlopidine + cefuroxime, including USA300): 7 of 10
- antibacterial activity alone (S. aureus strains; ticlopidine alone against the S. aureus strains of Table 1): no antibacterial activity alone
- potentiation of the activity of the β-lactams (S. aureus strains; ticlopidine in combination with a β-lactam, even in β-lactam-resistant S. aureus): over 32 fold

SMILES: Clc1ccc2c(c1)CCN(Cc1ccccc1Cl)C2 [Compound 1-novel, 6-Chloro-2-(2-chloro-benzyl)-1,2,3,4-tetrahydro-isoquinoline]
- FIC index (MRSA; [10]): ≦2

SMILES: Clc1ccccc1CN1CCc2ccccc2C1 [Compound 3, 2-(2-Chloro-benzyl)-1,2,3,4-tetrahydro-isoquinoline]
- FIC index (MRSA; [9]): ≦0.125

SMILES: Clc1ccccc1CN1CCCC1 [Compound 11, 1-(2-Chloro-benzyl)-pyrrolidine]
- FIC index (MRSA; [9]): ≦2

SMILES: c1ccc2c(c1)CCN(Cc1ccc3ccccc3c1)C2 [Compound 3-novel, 2-Naphthalen-2-ylmethyl-1,2,3,4-tetrahydro-isoquinoline]
- FIC index (MRSA; [10]): ≦0.312

SMILES: c1ccc(CN2CCc3ccccc3C2)cc1 [Compound 6, 2-Benzyl-1,2,3,4-tetrahydro-isoquinoline]
- FIC index (MRSA; [9]): ≦0.625

SMILES: Clc1cccc(CN2CCc3ccccc3C2)c1 [Compound 4, 2-(3-Chloro-benzyl)-1,2,3,4-tetrahydro-isoquinoline]
- FIC index (MRSA; [9]): ≦2

SMILES: Fc1ccccc1CN1CCc2ccccc2C1 [Compound 15, 2-(2-Fluoro-benzyl)-1,2,3,4-tetrahydro-isoquinoline]
- FIC index (MRSA; [9]): ≦0.187

SMILES: Clc1ccccc1CN1CCCCC1 [Compound 12, 1-(2-Chloro-benzyl)-piperidine]
- FIC index (MRSA; [9]): ≦2

SMILES: Clc1ccccc1C[n+]1ccc2ccccc2c1 [Compound 8, 2-(2-Chloro-benzyl)-isoquinolinium]
- FIC index (MRSA; [9]): ≦2

- MIC (CA-MRSA USA300; [6]): > 128 µg/mL
SMILES: COC(=O)[C@H](c1ccccc1Cl)N1CCc2sccc2C1 [Compound 19, (+)-(S)-methyl 2-(2-chlorophenyl)-2-(6,7-dihydrothieno[3,2-c]pyridin-5(4H)-yl)acetate]
- FIC thienopyridine (CA-MRSA USA300; [7]): 0.13
- FIC index (CA-MRSA USA300; thienopyridine in combination with cefuroxime, CA-MRSA USA300 (Table 4), listed as Clopidogrel): ≦0.20
- FIC index (CA-MRSA USA300; thienopyridine in combination with cefuroxime, CA-MRSA USA300 (Table 4), listed as clopidogrel): ≤ 0.20
- FIC index (MRSA; [9]): ≦0.187
